# Source: ChEMBL document CHEMBL1201862, “PubChem BioAssay data set” (2004)
# The source made the active and inactive calls.
# Legend:
# [1] = target: Peroxisome proliferator-activated receptor gamma/Nuclear receptor corepressor 2 (Homo sapiens, UniProt P37231+Q9Y618); format: functional
# [2] = target: Photoreceptor-specific nuclear receptor (Homo sapiens, UniProt Q9Y5X4); format: functional;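 note: potency for compounds that break the NR2E3 corepressor complex and count as activators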
# Streptococcus [3] = test: Luminescence Microorganism-Based Dose Response Follow up to Identify Compounds Cytotoxic to Streptococcus. [Related pubchem assays: 1677 (Project Summary), 1915, 1914, 1902 (Retest at Dose), 1900 (Counter Screen), 1662 (Primary HTS)]; format: functional, organism-based
# [4] = tested on: Streptococcus sp. 'group A'; test: growth inhibition of control SK(-) GAS strain, dose response, counter-screen for streptokinase expression inhibitor project, luminescence, kanamycin, BacTiterGlo, confirmation (AID 1900); format: functional, organism-based
# Streptokinase A = target: T1, Streptokinase A (Streptococcus pyogenes serotype M1, UniProt P10520); test: S. pyogenes streptokinase expression inhibitors, potency, dose response, plasminogen activation absorbance, OD405 (AID 1914); format: functional, Streptococcus pyogenes M1 GAS;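 note: secreted streptokinase activity via plasminogen activation per viability signal from cell pellet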
# T1 sequence (P10520 whole entry): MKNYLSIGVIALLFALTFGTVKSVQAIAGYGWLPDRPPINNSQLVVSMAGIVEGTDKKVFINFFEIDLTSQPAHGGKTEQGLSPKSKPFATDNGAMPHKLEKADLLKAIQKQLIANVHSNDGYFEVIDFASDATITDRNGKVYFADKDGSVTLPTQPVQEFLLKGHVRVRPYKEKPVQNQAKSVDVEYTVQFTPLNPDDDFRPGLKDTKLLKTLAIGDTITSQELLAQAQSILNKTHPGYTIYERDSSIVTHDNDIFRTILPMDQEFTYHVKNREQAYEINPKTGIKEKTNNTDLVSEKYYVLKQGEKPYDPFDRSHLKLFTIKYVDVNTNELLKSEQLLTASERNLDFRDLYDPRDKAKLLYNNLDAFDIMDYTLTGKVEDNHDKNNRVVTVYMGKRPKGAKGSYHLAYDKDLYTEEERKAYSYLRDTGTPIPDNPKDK
# Streptococcus [5] = test: Group A Streptococcus viability loss, dose response, counter-screen for streptokinase expression inhibitor project, luminescence, BacTiterGlo (AID 1915); format: functional, organism-based;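 note: potency for reduction of bacterial viability or growth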
# [6] = target: Lysosomal acid glucosylceramidase (Homo sapiens, UniProt P04062); test: Dose response cell-based high throughput screening assay to identify enhancers of beta-glucosidase activity. [Related pubchem assays: 784 ]; format: functional
# [7] = target: T2, Protein phosphatase methylesterase 1 (Homo sapiens, UniProt Q9Y570); test: PME-1 inhibitor potency by in-gel ABPP, dose response, selectivity assay for PME-1 inhibitor project, cell lysate, mouse brain cytosol, FP-rhodamine, panel member PME-1 Assay Panel member description: Inhibition of endogenously expressed PME-1 (AID 2366)
# T2 sequence (Q9Y570 whole entry): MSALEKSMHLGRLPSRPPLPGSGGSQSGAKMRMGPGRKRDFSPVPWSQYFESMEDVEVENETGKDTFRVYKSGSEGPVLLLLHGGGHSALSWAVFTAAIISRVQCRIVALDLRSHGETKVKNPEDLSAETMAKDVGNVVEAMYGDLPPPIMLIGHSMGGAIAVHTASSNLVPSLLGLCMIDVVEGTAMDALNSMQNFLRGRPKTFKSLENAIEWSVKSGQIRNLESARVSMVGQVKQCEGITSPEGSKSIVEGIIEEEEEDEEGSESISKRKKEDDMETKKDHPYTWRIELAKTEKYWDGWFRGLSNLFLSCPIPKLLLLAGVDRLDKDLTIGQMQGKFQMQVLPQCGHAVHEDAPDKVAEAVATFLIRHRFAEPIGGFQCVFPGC
# [8] = target: T2, Protein phosphatase methylesterase 1; test: Late stage results from the probe development effort to identify inhibitors of the protein methylesterase PME-1: Gel-based Activity-Based Protein Profiling (ABPP) IC50: Purified enzyme.; format: functional
# Serine hydrolase RBBP9 = Serine hydrolase RBBP9 (Homo sapiens, UniProt O75884); test: human RBBP9 inhibitor potency, late-stage follow-up, biochemical, gel-based ABPP, IC50, panel member Panel member description: RBBP9 IC50 Gel-based ABPP Assay (AID 2254)
# Sequence of Serine hydrolase RBBP9 (O75884 whole entry): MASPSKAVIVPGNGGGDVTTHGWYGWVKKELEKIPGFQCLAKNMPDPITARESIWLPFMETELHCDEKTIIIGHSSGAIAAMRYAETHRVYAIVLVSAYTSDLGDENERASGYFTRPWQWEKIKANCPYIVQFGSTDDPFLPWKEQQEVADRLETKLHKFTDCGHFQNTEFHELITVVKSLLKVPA
# Staphylococcus aureus = test: Inhibitors of Bacterial Quorum Sensing Structure Activity Relationship (SAR) Analysis: Dose Response Assay. [Related pubchem assays: 700, 527 ]; format: functional, organism-based
# [9] = target: FAD-linked sulfhydryl oxidase ALR (Homo sapiens, UniProt P55789); test: inhibitors of human ALR sulfhydryl oxidase, dose response, biochemical, H2O2 detection, luminescence, cherry-pick (AID 493248)
# Sequence of FAD-linked sulfhydryl oxidase ALR (P55789 whole entry, the tested form may be a part): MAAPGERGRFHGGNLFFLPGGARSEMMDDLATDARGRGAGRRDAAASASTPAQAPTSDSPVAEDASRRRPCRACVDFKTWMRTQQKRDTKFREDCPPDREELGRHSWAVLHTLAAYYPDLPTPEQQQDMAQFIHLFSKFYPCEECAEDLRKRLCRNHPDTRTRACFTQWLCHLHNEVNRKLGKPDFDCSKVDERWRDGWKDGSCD
# [10] = target: Envelope glycoprotein gp160 (Human immunodeficiency virus 1, UniProt Q6QLK5); test: inhibitors of HIV fusion peptide binding, primary screen, biochemical, uHTS, fluorescence dequenching (AID 1986)
# Sequence of Envelope glycoprotein gp160 (Q6QLK5 whole entry, the tested form may be a part): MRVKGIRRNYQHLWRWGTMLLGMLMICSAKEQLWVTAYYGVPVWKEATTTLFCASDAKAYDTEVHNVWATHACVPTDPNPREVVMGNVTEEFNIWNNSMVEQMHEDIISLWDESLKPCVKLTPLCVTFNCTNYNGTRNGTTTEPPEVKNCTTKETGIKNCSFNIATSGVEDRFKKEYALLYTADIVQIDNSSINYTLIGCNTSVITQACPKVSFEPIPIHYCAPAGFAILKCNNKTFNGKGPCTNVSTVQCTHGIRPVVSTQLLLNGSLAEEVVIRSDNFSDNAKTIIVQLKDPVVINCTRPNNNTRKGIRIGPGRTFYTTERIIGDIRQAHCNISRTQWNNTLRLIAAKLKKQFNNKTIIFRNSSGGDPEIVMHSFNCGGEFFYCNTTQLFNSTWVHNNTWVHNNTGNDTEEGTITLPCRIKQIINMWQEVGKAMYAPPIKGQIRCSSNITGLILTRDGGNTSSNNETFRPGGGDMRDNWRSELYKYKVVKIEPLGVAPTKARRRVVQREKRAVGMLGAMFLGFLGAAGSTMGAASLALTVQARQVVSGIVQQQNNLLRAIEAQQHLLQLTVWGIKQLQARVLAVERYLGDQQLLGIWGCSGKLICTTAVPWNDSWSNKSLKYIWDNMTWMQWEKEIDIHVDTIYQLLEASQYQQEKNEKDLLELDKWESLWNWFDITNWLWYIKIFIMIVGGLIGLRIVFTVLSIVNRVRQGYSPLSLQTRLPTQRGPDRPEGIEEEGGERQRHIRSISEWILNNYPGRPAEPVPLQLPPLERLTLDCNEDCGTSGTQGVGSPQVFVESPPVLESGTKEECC
# BJ [11] = test: cells; format: functional, cell-based; settings: Homo sapiens
# [12] = target: T3, Voltage-dependent T-type calcium channel subunit alpha-1H (Homo sapiens, UniProt O95180); format: functional
# T3 sequence (O95180 whole entry): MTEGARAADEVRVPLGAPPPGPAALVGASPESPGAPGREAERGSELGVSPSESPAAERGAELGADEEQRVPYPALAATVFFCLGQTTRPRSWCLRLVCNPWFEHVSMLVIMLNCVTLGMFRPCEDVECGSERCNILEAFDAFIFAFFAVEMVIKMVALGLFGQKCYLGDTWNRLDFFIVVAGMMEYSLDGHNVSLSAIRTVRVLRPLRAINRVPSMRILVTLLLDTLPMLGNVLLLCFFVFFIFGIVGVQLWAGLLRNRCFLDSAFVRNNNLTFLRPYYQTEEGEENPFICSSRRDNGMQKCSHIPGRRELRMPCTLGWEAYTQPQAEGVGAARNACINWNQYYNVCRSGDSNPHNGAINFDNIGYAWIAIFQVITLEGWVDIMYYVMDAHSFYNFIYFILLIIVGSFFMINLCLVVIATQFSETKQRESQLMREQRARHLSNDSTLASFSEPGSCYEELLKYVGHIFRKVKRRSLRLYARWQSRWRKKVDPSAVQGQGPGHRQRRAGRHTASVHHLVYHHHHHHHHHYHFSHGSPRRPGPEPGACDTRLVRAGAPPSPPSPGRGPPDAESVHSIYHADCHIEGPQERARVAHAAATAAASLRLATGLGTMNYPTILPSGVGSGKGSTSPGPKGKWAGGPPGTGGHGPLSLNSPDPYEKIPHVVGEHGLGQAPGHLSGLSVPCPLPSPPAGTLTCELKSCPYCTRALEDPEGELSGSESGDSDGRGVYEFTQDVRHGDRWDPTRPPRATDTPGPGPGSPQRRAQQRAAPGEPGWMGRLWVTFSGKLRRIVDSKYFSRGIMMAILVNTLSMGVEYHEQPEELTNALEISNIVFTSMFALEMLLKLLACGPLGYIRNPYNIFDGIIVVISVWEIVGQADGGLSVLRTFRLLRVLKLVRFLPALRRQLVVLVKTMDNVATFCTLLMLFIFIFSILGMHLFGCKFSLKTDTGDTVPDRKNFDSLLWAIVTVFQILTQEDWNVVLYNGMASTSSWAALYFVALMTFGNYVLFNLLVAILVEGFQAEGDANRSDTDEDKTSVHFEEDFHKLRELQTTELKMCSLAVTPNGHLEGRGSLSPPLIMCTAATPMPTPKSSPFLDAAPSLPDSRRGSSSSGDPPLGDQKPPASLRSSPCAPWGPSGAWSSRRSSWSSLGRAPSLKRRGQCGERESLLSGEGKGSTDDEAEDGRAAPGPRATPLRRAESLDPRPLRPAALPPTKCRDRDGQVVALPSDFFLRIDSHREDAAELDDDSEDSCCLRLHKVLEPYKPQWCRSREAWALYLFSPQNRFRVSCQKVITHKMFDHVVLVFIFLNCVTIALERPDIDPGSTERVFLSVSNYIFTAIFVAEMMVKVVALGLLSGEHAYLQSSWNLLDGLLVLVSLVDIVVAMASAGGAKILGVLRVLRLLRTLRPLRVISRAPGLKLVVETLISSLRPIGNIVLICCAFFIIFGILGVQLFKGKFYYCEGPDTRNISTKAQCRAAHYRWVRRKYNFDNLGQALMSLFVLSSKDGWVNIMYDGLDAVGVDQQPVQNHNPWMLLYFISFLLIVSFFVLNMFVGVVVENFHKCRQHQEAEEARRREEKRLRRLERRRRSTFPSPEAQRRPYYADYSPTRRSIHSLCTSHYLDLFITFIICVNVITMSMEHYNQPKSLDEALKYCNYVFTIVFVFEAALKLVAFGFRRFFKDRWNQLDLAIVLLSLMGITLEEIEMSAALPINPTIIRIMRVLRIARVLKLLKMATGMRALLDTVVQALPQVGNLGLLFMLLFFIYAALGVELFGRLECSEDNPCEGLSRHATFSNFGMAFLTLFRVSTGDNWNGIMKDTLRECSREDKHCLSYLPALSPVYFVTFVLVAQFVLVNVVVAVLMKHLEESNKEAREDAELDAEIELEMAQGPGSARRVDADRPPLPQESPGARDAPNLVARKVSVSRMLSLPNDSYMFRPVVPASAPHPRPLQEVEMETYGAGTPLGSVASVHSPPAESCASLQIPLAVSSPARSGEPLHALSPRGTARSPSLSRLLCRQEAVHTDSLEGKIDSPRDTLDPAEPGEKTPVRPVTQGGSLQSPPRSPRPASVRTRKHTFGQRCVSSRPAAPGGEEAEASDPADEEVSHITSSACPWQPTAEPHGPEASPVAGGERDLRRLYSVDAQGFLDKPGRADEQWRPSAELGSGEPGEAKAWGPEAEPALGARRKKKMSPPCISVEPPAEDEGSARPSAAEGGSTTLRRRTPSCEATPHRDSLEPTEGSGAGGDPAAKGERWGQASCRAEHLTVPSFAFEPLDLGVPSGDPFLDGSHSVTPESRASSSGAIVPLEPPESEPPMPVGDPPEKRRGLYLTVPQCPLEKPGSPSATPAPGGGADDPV
# BJ [13] = test: cytotoxicity toward BJ-TERT-LT-ST fibroblasts, dose response, cell-based, RAS-independent, luminescence (AID 1935); format: functional; settings: Homo sapiens;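 note: BJ fibroblasts immortalized with TERT plus LT and ST oncogenes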
# [14] = target: T3, Voltage-dependent T-type calcium channel subunit alpha-1H; test: Inhibitors of T-Type Calcium Channels. [Related pubchem assays (depositor defined):AID449739, AID463087, AID489005, AID493041, AID504579, AID504584, AID504619, AID504628]; format: functional
# [15] = cytotoxicity toward DRD oncogenic fibroblasts, dose response, cell-based, non-viral oncogenic, luminescence (AID 1934); format: functional; settings: Homo sapiens
# BJ [16] = test: cytotoxicity toward BJ-TERT fibroblasts, dose response, cell-based, RAS-independent, luminescence (AID 1933); format: functional; settings: Homo sapiens
# [17] = target: T4, Neuropeptides B/W receptor type 1 (Homo sapiens, UniProt P48145); test: GPR7 antagonist potency, late-stage follow-up, cell-based, fluorescence, dose response (AID 463251); format: functional
# T4 sequence (P48145 whole entry): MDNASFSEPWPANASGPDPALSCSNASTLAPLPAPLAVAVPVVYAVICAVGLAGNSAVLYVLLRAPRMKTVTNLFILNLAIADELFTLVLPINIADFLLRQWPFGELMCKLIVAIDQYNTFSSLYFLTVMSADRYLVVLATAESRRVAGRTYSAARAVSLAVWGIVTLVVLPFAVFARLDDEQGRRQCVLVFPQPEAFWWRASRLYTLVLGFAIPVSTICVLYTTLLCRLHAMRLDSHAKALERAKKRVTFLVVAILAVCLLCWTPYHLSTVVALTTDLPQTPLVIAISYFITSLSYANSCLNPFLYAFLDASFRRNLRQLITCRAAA
# [18] = target: Melanin-concentrating hormone receptor 1 (Homo sapiens, UniProt Q99705); test: Late-stage fluorescence-based counterscreen for antagonists of the G-protein coupled receptor 7 (GPR7): cell-based dose response assay to identify antagonists of the melanin-concentrating hormone receptor 1 (MCHR1). [Related pubchem assays (depositor defined):AID1861, AID1880, AID1952, AID2148, AID2251, AID2257, AID485339]; format: functional;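 note: stimulated with 30 nM MCH peptide agonist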
# Cytochrome P450 2D6 = Cytochrome P450 2D6 (Homo sapiens, UniProt P10635); test: qHTS Assay for Inhibitors and Substrates of Cytochrome P450 2D6. [Related pubchem assays: 410 ]; format: ADME; settings: read-out: Potency
# Trypsin = Trypsin (Sus scrofa, UniProt P00761); test: porcine trypsin inhibitors, dose response, selectivity assay for Rce1 protease inhibitor project, biochemical, quenched peptide fluorescence, cherry-pick (AID 488789)
# CAAX prenyl protease 2 = target: T5, CAAX prenyl protease 2 (Saccharomyces cerevisiae S288c, UniProt Q03530); format: biochemical
# T5 sequence (Q03530 whole entry): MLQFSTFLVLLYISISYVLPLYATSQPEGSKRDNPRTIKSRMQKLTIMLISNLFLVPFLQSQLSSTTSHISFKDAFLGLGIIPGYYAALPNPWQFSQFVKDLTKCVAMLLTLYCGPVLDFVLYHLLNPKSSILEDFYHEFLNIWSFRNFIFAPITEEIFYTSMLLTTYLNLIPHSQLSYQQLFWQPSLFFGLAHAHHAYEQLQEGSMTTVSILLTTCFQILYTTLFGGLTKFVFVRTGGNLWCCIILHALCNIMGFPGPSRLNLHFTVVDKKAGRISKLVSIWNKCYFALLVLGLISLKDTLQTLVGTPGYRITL
# HEK293 [19] = test: PMA/Ionomycin induced NF-kB luciferase assay in 293- NF-kB-Luc stable cells. [Related pubchem assays: 1299, 1270, 1295, 1375, 1287, 1281, 1293, 1291, 1289, 1280, 465, 1364, 1282, 1372, 1365, 1370, 1367, 1366, 1269, 1373, 1292, 1290, 1302, 1371, 1283, 1271, 1294, 1374, 1368, 1369 ]; format: functional, cell-based; settings: Homo sapiens
# HEK293 [20] = test: TNF Induced NF-kB Luciferase in 293-NF-kB-Luc Stable Cells. [Related pubchem assays: 1266, 1299, 1269, 1373, 1292, 1290, 1302, 1371, 1283, 1270, 1295, 1271, 1375, 1294, 1374, 1281, 1293, 1291, 1289, 1280, 465, 1368, 1364, 1282, 1372, 1365, 1369, 1370, 1367, 1366 ]; format: functional, cell-based; settings: Homo sapiens
# HEK293 [21] = test: Cytotoxicity assay in HEK293 cells. [Related pubchem assays (depositor defined):AID1266, AID1269, AID1270, AID1271, AID1280, AID1281, AID1282, AID1283, AID1287, AID1289, AID1290, AID1291, AID1292, AID1293, AID1294, AID1295, AID1299, AID1302, AID1364, AID1365, AID1366, AID1367, AID1369, AID1370, AID1371, AID1372, AID1373, AID1374, AID1375, AID1384 …; format: functional, cell-based; settings: Homo sapiens
# [22] = target: Luciferin 4-monooxygenase (Photinus pyralis, UniProt P08659); test: In vitro luciferase assay using purified luciferase. [Related pubchem assays: 1299, 1270, 1295, 1375, 1287, 1281, 1293, 1291, 1289, 1280, 465, 1364, 1282, 1372, 1365, 1370, 1367, 1366, 1266, 1373, 1292, 1290, 1302, 1371, 1283, 1271, 1294, 1374, 1368, 1369 ]
# Salmon testes DNA = test: DNA intercalators displacing acridine orange, dose response, artefact control for KSHV LANA DNA-binding inhibitor project, biochemical, fluorescence polarization, cherry-picked samples, set 2 (AID 504727); design: species or system Salmonidae
# HeLa = test: HeLa cell cytotoxicity, dose response, cytotoxicity control, 24 h, cherry-picked samples (AID 504726); format: functional, cell-based; settings: Homo sapiens;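 note: potency for cytotoxicity as loss of luminescence signal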
# [23] = cytotoxicity toward NIH3T3 fibroblasts, dose response, counter-screen, cell-based, ATP luminescence, mouse fibroblasts (AID 2010); format: functional;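 note: cells exposed to compound for about 90 hours before reading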
# [24] = inhibitors of intracellular T. cruzi replication, confirmation, NIH3T3 host cells, beta-gal luminescence (AID 2044); format: functional, cell-based;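 note: intracellular parasites grown in NIH/3T3 mouse fibroblasts as host cells; luminescent beta-galactosidase reporter signal from transgenic T. cruzi replicating inside host cells; inhibitors lower the luminescence signal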
# [25] = target: T6, Eukaryotic translation initiation factor 2-alpha kinase 3 (Homo sapiens, UniProt Q9NZJ5); test: Counterscreen assay for PERK inhibitors: Dose response cell-based high throughput screening assay to measure inhibition of PERK at 6 hours. [Related pubchem assays: 1522, 1416 ]; format: functional
# T6 sequence (Q9NZJ5 whole entry): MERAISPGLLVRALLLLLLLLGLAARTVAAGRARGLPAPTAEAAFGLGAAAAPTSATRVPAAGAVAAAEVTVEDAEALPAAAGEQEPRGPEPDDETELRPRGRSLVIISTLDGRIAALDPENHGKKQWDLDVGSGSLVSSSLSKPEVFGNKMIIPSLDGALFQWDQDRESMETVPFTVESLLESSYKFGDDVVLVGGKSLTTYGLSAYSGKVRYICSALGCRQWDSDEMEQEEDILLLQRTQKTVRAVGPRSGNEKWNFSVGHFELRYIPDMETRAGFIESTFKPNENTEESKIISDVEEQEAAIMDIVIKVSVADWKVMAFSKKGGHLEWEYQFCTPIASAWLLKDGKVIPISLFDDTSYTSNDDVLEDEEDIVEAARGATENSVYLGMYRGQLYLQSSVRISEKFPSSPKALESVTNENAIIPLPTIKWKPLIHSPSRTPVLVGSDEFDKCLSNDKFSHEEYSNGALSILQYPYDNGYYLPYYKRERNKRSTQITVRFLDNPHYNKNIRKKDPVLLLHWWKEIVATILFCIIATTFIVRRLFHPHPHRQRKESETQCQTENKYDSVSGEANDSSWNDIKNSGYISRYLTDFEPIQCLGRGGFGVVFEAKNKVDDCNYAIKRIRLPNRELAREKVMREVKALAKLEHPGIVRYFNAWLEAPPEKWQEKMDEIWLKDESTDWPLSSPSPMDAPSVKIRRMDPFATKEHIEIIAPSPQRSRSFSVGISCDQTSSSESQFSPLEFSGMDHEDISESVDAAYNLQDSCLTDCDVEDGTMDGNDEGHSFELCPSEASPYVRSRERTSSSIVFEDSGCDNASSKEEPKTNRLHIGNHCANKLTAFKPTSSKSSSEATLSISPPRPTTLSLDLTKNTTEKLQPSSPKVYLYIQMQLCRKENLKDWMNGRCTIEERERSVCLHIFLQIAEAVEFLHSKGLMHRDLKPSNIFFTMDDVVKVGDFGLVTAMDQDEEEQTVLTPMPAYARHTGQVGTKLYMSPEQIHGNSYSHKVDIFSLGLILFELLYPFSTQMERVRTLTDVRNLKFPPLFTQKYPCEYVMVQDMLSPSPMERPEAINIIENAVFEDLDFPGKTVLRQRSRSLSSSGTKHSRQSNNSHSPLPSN
# [26] = target: T6, Eukaryotic translation initiation factor 2-alpha kinase 3; test: Dose response cell-based high-throughput screening assay to measure PERK inhibition. [Related pubchem assays: 1416 ]; format: functional
# [27] = growth suppression of PTEN-null colon cells, dose response, cell-based, HCT116 PTEN knockout (AID 1047); format: functional;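 note: HCT116 colon tumor cells with PTEN knocked out; cells exposed to compound for 60 hours before readout; potency for loss of cell viability measured by luminescence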
# X-box-binding protein 1 = X-box-binding protein 1 (Homo sapiens, UniProt P17861); format: functional, Cricetulus griseus;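 note: confirmatory dose-response counter-screen serving a CHOP assay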
# [28] = growth suppression of beta-catenin-knockout colon cells, dose response, cell-based, HCT116, human colon tumor (AID 1045); format: functional;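 note: HCT116 colon tumor cells with beta catenin knocked out; cells exposed to compound for 60 hours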
smiles,measurement,setting,value
COC(=O)CCCCC1SCC2NC(=O)NC21O (stereo not drawn),IC50,[1],0.577 µM (active)
same,IC50,[2],0.139 µM (active)
COc1ccc(Nc2ncnc3scc(-c4ccc(OC)cc4)c23)cc1,EC50,Streptococcus [3],> 500 µM (not active)
same,EC50,[4],122 µM (active)
same,EC50,Streptokinase A,10.5 µM (active)
same,EC50,Streptococcus [5],> 150 µM (not active)
Cc1cc(C)nc(Sc2nc(C)nc3c2oc2ccccc23)n1,EC50,[6],> 50 µM (not active)
CS(=O)(=O)/C(C#N)=C/c1ccc[nH]1,IC50,[7],> 20 µM (inactive)
same,IC50,[8],> 20 µM (not active)
C/C(=N\OC(=O)c1ccccc1)c1nccs1,IC50,Serine hydrolase RBBP9,5 µM (active)
COc1c(F)c(F)c(C(=O)O)c(Nc2ccc(C)cc2C)c1F,IC50,Staphylococcus aureus,0.579 µM (active)
same,AC50,[9],15.9 µM (active)
C/C(=C/CCC(C)C1CCC2(C)C3CCC4C(C)(C)C(=O)CCC4(C)C3=CCC12C)C(=O)O (stereo not drawn),IC50,[10],> 99 µM (inactive)
Clc1ccc(Cn2ncc3c(NCc4ccco4)ncnc32)c(Cl)c1,EC50,BJ [11],> 150 µM (not active)
same,EC50,[12],1.99 µM (active)
same,EC50,BJ [13],> 150 µM (inconclusive)
same,EC50,[14],9.5 µM (active)
same,EC50,[15],12.3 µM (inconclusive)
same,EC50,BJ [16],9.56 µM (inconclusive)
COC(=O)/C=C/c1cnn(-c2ccc(C(C)C)cc2)c(=O)c1Oc1ccc(OC)cc1,IC50,[17],> 20 µM (inactive)
same,IC50,[18],> 20 µM (inactive)
COC1=C[C@H]2[C@@H]3Cc4ccc(OC)c(O)c4[C@@]2(CCN3C)CC1=O,AC50,Cytochrome P450 2D6,20 µM (inconclusive)
O=C1c2cccc(OCC(=O)N3N=C(c4cccs4)CC3c3ccc(F)cc3)c2CCN1Cc1cccnc1 (stereo not drawn),AC50,Trypsin,12.9 µM (active)
same,AC50,CAAX prenyl protease 2,13.1 µM (active)
COc1ccc2ccccc2c1C(=O)/C=C/c1cccnc1,EC50,HEK293 [19],0.644 µM (active)
same,EC50,HEK293 [20],3.5 µM (active)
same,EC50,HEK293 [21],8.48 µM (inactive)
same,EC50,[22],> 8 µM (not active)
NNc1nc(-c2ccccc2)cs1,AC50,Salmon testes DNA,58.7 µM (active)
same,AC50,HeLa,> 350 µM (inactive)
same,EC50,[23],4.75 µM (active)
same,EC50,[24],4.06 µM (active)
same,AC50,[9],5.04 µM (active)
COc1ccccc1NC(=O)CSc1nnc(CCC(=O)Nc2ccccc2F)n1C,EC50,[25],> 55.7 µM (not active)
same,EC50,[26],> 55.7 µM (not active)
NC(N)=C1C(=O)N(C2CCCCC2)C(=O)N(C2CCCCC2)C1=O,EC50,[27],24 µM (active)
same,Absolute IC50 (XBP1),X-box-binding protein 1,10 µM
same,EC50,[28],25.5 µM (active)
